This passage reports EC50 and IC50 results from US12391683B2, “Therapeutic compounds and methods” (Actio Biosciences, Inc., priority 2022, dated 2025).

Each structure is given as a SMILES string. pEC50, pIC50: −log10 of the molar value.

The assay addresses T1, TRPV2 channels (Homo sapiens, UniProt Q9Y5S1).
T1 construct: expressed in transfected cells; host or cells: HEK293 (transient)
T1 sequence (Q9Y5S1 1-764): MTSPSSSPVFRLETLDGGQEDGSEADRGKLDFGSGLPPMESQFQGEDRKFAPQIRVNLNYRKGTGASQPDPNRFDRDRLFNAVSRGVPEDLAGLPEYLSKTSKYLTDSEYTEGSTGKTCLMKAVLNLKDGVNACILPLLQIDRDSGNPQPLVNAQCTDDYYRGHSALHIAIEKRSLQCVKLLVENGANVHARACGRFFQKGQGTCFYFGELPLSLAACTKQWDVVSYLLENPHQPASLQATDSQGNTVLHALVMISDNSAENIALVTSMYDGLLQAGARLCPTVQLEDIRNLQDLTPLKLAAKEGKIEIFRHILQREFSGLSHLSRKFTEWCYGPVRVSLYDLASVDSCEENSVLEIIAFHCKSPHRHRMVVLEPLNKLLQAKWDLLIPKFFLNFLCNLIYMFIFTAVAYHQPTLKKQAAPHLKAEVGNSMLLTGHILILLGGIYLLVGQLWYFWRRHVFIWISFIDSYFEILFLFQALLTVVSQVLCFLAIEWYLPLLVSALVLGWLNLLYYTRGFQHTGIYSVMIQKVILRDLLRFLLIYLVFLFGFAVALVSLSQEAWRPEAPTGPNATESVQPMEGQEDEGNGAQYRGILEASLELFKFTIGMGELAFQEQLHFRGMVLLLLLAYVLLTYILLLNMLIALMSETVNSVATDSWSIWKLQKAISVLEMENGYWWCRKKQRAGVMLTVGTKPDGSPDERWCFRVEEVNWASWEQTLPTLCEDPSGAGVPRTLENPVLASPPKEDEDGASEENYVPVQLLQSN
Nature of the assay: TRP Family FLIPR Assay, TRPV2. Format: cell-based. The following applies: HEK293 cells (transient). Here is the method:
The compound of Example 5 was tested for selectivity against a panel of Human TRP family ion channels in a TRP Family FLIPR Assay as described below. • 1. TRPC3 channels (human TRPC3 variant 1 gene, expressed in HEK293 cells). • 2. TRPC4 channels (human TRPC4 gene, expressed in HEK293 cells). • 3. TRPC5 channels (human TRPC5 gene, expressed in HEK293 cells). • 4. TRPC6 channels (human TRPC6 gene, expressed in HEK293 cells). • 5. TRPM2 channels (human TRPM2 gene, transiently expressed in HEK293 cells). • 6. TRPM3 channels (human TRPM3 gene, transiently expressed in HEK293 cells). • 7. TRPM4 channels (human TRPM4 gene, expressed in CHO cells). • 8. […]
Data acquisition was performed via the FLIPR Control software supplied with the FLIPR System (MDS-AT) and data was analyzed using Microsoft Excel (Microsoft Corp., Redmond, WA) or GraphPad Prism. […]
[formula] where Base is the response at low concentrations of test article, Max is the maximum response at high concentrations, xhalf the EC50, or IC50, the concentration of test article producing either half-maximal activation or inhibition, and rate is the Hill coefficient. […] No assumptions about the fit parameters was made; the fit parameters were determined by the algorithm.
The effect of each test article was evaluated at eight (8) concentrations: 0.003, 0.01, 0.03, 0.1, 0.3, 1, 3 and 10 μM, n≤4 wells/concentration). […]

As to `CC(C)(O)c1cnc(N2C[C@@]3(CC[C@@H](F)[C@](C)(Cn4cnc5ccc(C#N)cc54)C3)OC2=O)cn1` (single isomer, unassigned) [Example 5], the pEC50 (commonly the negative decadic logarithm of the EC50, by convention in mol/L) (agonist mode, vs EMAX of cannabidiol 300 μM, read-out: EC50 hTRPV2) is less than 5.00. The pIC50 (usually the negative decadic logarithm of the IC50, by convention in mol/L) (antagonist mode, activated with capsaicin 100 μM, 0.003-10 μM, read-out: IC50 hTRPV2) is less than 5.00.
